Measurements from EP0702683B1, “06-SUBSTITUTED GUANINE DERIVATIVES, A PROCESS FOR THEIR PREPARATION AND THEIR USE IN TREATING TUMOUR CELLS” (Cancer Research Technology Limited, priority 1993, dated 1994).
Read-outs that look alike come from different tables or passages of the source.

Tests used:
ATase [1] = target: T1, ATase (Homo sapiens, UniProt P16455); experiment: Inactivation of ATase activity in Raji cells; format: cell-based; set-up: endogenous in cells; host or cells: Raji; details: Raji cells, 2 hours at 37°C; read-out: Raji I50
T1 sequence (P16455 1-207): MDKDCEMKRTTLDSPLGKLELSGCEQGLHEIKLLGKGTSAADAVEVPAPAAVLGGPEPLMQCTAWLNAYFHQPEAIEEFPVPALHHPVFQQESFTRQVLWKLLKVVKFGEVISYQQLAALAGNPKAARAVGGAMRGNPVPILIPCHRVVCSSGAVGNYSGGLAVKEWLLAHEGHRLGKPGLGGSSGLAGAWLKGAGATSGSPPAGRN
Method: Mammalian cells were cultured under standard conditions. For example, Raji (a human lymphoblastoid cell line from a Burkitt's lymphoma) cells were grown in suspension culture in RPMI medium supplemented with 10% horse serum. A375M cells are human melanoma cells from which the xenografts described below were established following subcutaneous injection into nude mice: WiDr cells are a human colon carcinoma cell line: Hamster+120 cells are a mitozolomide-selected subline of a Chinese hamster lung fibroblast V79 cell line called RJKO: Yoshida cells are a rat carcinosarcoma cell line and YRbus is a busulphan resistant subline thereof: XP cells are an SV40-transformed fibroblast cell line originally from the skin of a Xeroderma pigmentosum patient, pHMGhAT2b cells are a clone of these cells that have been transfected with a mammalian cell expression vector containing the human ATase cDNA and pHMGla cells are a clone that have been transfected with the expression vector only (i.e. one not containing the human ATase cDNA). Cell pellets were resuspended in cold (4°C) buffer I containing 2 µg/ml leupeptin and sonicated for 10 seconds at 12 µ peak to peak distance. After cooling in ice, the cells were sonicated for a further 10 seconds at 18 µ. Immediately after sonication, 0.01 volumes of 8.7 mg/ml phenylmethanesulphonylfluoride in ethanol was added and the sonicates centrifuged at 15 000 g for 10 minutes at 4°C to pellet cell debris. The supernatant was kept for determination of ATase activity (see below).
Cells were diluted to 10^6/ml in culture medium containing either the appropriate concentration of inactivator or an equivalent volume of vehicle (DMSO). Following incubation at 37°C for 2 hours the cells were harvested by centrifugation, washed twice with PBS and the resulting cell pellets (between 1-2 x 10^7 per pellet) stored at -20°C.

ATase [2] = target: T1, ATase; experiment: In vitro ATase inactivation assay with purified recombinant human ATase; format: biochemical; set-up: made in house
Method: The cDNA cloning and overexpression of the human ATase has been reported previously^23. Purification of the recombinant proteins was achieved either by affinity chromatography through a DNA-cellulose column as described by Wilkinson et al.,^25, 26, or by DEAE-cellulose ion-exchange chromatography. For the latter, the ATase protein was partially purified by ammonium sulphate precipitation (30 - 60%) and dialysed against 10 mM Tris-HCl pH 7.5, 1 mM DTT, 2 mM EDTA, 10% glycerol, before loading on a DEAF-cellulose column. The ATase was then eluted with a 0-0.1 M NaCl gradient.
Compounds to be tested were dissolved in DMSO to a final concentration of 10 mM and diluted just before use in buffer I containing 1 mg/ml bovine serum albumin (IBSA). Recombinant ATase was diluted in IBSA and titrated in order that the reaction be conducted under ATase, and not substrate, limiting conditions. In each assay, fixed amounts of ATase (60-75 fmol) were incubated with varying amounts of 0^6-benzylguanine, or test compound in a total volume of 200 µl of IBSA containing 10 µg of calf thymus DNA at 37°C for 1 hour. The [^3H]-methylated-DNA substrate (100 µl containing 6.7 µg of DNA and 100 fmol of 0^6-methylguanine) was added and incubation continued at 37° for 1 hour, until the reaction was completed. Following acid hydrolysis of the DNA as previously described^21 the [^3H]-methylated protein was recovered and quantitated by liquid scintillation counting. Samples were typically assayed in duplicate and experiments repeated several times. I50 is the concentration of inactivator required to produce a 50% reduction in ATase activity.

[3] = Stability of inactivators at 37°C (spectrophotometric half life); format: physicochemical
Method: Inactivators (10mM in DMSO) were diluted to 0.1mM in prewarmed degassed buffer I (1mM EDTA, 50mM Tris pH 8.3) or PBS (pH 7-7.2). […] Samples were immediately transferred to a CARY13 spectrophotometer (cuvette block held at 37°C) and scanned at an appropriate wavelength (according to the spectral properties of the compound) at 3-10 minute intervals for up to 80 hours. The results were expressed as percentage absorbance change versus time and T1/2 values (half life) extrapolated from this.

Raji cells = experiment: Sensitization of Raji cells to BCNU (XTT assay); format: cell-based, human; details: BCNU, 2 hour pretreatment; for Raji sensitization (D90.^C/D90.^I) 0.5µM: inactivator 0.5µM; for Raji sensitization (D90.^C/D90.^I) 1.0µM: inactivator 1.0µM; for Raji sensitization (D90.^C/D90.^I) O.1µM: inactivator O.1µM
Method: Following a 2 hour incubation at 37°C, medium containing either increasing doses of BCNU, temozolomide or equivalent vehicle was added and the cells allowed to grow for 6 days. At this time XTT solution was added and the cells incubated for a further 4 hours at 37°C. The resulting red/orange formazan reaction product was quantified by measuring absorption at 450nm on a microtitre platereader.

A375M cells = experiment: Sensitization of A375M cells to BCNU (MTT assay); format: cell-based, human; details: for A375M sensitization (D50.^C/D50.^I) 1.0uM: inactivator 1.0uM 2 hours before
Method: Sensitization of A375M cells to the cytotoxic effects of BCNU was analysed by MTT assay ^24 differing from the XTT assay described above as follows. […] After 6 days MTT solution (4mg/ml) was added and cells incubated for 3 hours at 37°C. Medium was aspirated and the resulting purple formazan crystals were solubilised in DMSO (120μl) and cell viability was quantified by measuring absorption at 540nm using a microtitre plate reader.

[4] = 0.1mM in PBS (pH 7-7.2), read-out: T1/2(h) in PBS (converted)

Nc1nc(OCc2ccc3ccccc3c2)c2nc[nH]c2n1 [B.4213, O^6-(2-naphthylmethyl)guanine]
IC50 (ATase [1]): 30 nM
IC50 (ATase [2]): 150 nM
half-life at 100 µM [3, 4]: > 16 h
Raji sensitization (D90.^C/D90.^I) 0.5µM (Raji cells): 2.1
Raji sensitization (D90.^C/D90.^I) 1.0µM (Raji cells): 2.9
Raji sensitization (D90.^C/D90.^I) O.1µM (Raji cells): 1.2
A375M sensitization (D50.^C/D50.^I) 1.0uM (A375M cells): 2.0

Cc1ccc(COc2nc(N)nc3[nH]cnc23)s1 [B.4220, O^6-(5-methylthenyl)guanine]
IC50 (ATase [1]): > 1000 nM
IC50 (ATase [2]): 9000 nM
half-life at 100 µM [3, 4]: > 16 h
Raji sensitization (D90.^C/D90.^I) 0.5µM (Raji cells): 1.0
Raji sensitization (D90.^C/D90.^I) 1.0µM (Raji cells): 1.0
Raji sensitization (D90.^C/D90.^I) O.1µM (Raji cells): 1.0
A375M sensitization (D50.^C/D50.^I) 1.0uM (A375M cells): 1.3

Cc1ccc(COc2nc(N)nc3[nH]cnc23)o1 [B.4221, O^6-(5-methylfurfuryl)guanine]
IC50 (ATase [1]): > 1000 nM
IC50 (ATase [2]): 10000 nM
half-life at 100 µM [3, 4]: > 16 h
Raji sensitization (D90.^C/D90.^I) 0.5µM (Raji cells): 1.0
Raji sensitization (D90.^C/D90.^I) 1.0µM (Raji cells): 1.0
Raji sensitization (D90.^C/D90.^I) O.1µM (Raji cells): 1.0
A375M sensitization (D50.^C/D50.^I) 1.0uM (A375M cells): 1.0

Cc1ccsc1COc1nc(N)nc2[nH]cnc12 [B.4222, O^6-(3-methylthenyl)guanine]
IC50 (ATase [1]): 470 nM
IC50 (ATase [2]): 650 nM
half-life at 100 µM [3, 4]: > 16 h
Raji sensitization (D90.^C/D90.^I) 0.5µM (Raji cells): 1.9
Raji sensitization (D90.^C/D90.^I) 1.0µM (Raji cells): 2.1
Raji sensitization (D90.^C/D90.^I) O.1µM (Raji cells): 1.4
A375M sensitization (D50.^C/D50.^I) 1.0uM (A375M cells): 1.4

Nc1nc(OCc2cc3ccccc3s2)c2nc[nH]c2n1 [B.4226, O^6-(2-benzo[b]thienylmethyl)guanine]
IC50 (ATase [1]): 60 nM
IC50 (ATase [2]): 30 nM
half-life at 100 µM [3, 4]: 6.7 h
half-life at 100 µM ([3]; 0.1mM in buffer I (1mM EDTA, 50mM Tris pH 8.3), read-out: T1/2(h) in Buffer I (converted)): 9.7 h
Raji sensitization (D90.^C/D90.^I) 0.5µM (Raji cells): 1.6
Raji sensitization (D90.^C/D90.^I) 1.0µM (Raji cells): 10.0
Raji sensitization (D90.^C/D90.^I) O.1µM (Raji cells): 1.6
A375M sensitization (D50.^C/D50.^I) 0.5uM (A375M cells; inactivator 0.5uM 2 hours before): 3.8
A375M sensitization (D50.^C/D50.^I) 5.0uM (A375M cells; inactivator 5.0uM 2 hours before): 4.5

COC(=O)c1ccc(COc2nc(N)nc3[nH]cnc23)o1 [B.4229, O^6-(5-methoxycarbonylfurfuryl)guanine]
IC50 (ATase [1]): 250 nM
IC50 (ATase [2]): 90 nM
half-life at 100 µM [3, 4]: > 16 h
Raji sensitization (D90.^C/D90.^I) 0.5µM (Raji cells): 2.1
Raji sensitization (D90.^C/D90.^I) 1.0µM (Raji cells): 2.5
Raji sensitization (D90.^C/D90.^I) O.1µM (Raji cells): 1.2
A375M sensitization (D50.^C/D50.^I) 1.0uM (A375M cells): 1.8

Nc1nc(OCc2ccc(C(=O)O)o2)c2nc[nH]c2n1 [B.4234, O^6-(5-carboxyfurfuryl)guanine]
IC50 (ATase [1]): > 1000 nM
IC50 (ATase [2]): 60000 nM
half-life at 100 µM [3, 4]: > 16 h
Raji sensitization (D90.^C/D90.^I) 0.5µM (Raji cells): 1.0
Raji sensitization (D90.^C/D90.^I) 1.0µM (Raji cells): 1.0
Raji sensitization (D90.^C/D90.^I) O.1µM (Raji cells): 1.0
A375M sensitization (D50.^C/D50.^I) 1.0uM (A375M cells): 0.8
